Assay results: patent publication US5719135A, “Substituted 3-arylidene-7-azaoxindole compounds and process for their preparation” (Pharmacia S.p.A., priority 1994, dated 1998)

Tests used:
[1] = molecular target: p45 v-abl tyrosine kinase; experiment: p45 v-abl Kinase Assay; type: biochemical, Abelson murine leukemia virus; conditions: in-vitro; (Val^5)-Angiotensin II peptide 2 mM, ATP 50 μM, pH 8.0, 30° C.
Method: p45 v-abl Kinase Purification
The enzyme used in our tests was the p45 v-abl tyrosine kinase which represents the catalytic domain of the Abelson tyrosine kinase (isolated form the Abelson murine leukemia virus). The p45 v-abl kinase was produced and isolated as described by Wang at al. in J. Biol. Chem. 260, 64 (1985) and by Ferguson et al. in J. Biol. Chem. 260, 3652 (1985) and in Biochem. J. 257, 321 (1989).
(Val^5)-Angiotensin II phosphorylation was performed by incubation with 40 ng of purified abl-kinase and (γ^32 -p)ATP, in 50 μl of buffer containing Tris-Hcl 25 mM, pH 8.0. MgCl2 10 mM and dithiothreitol 0.1 mM (kinase buffer). The reaction mixture was incubated for the indicated time at 30° C. and the reaction stopped by adding 50 μl of 5% trichloroacetic acid. After a brief incubation on ice, tubes were centrifuged. The supernatants were spotted on phosphocellulose paper squares (Whatman P-81) and washed extensively in acetic acid. The radioactivity bound to dried phosphocellulose squares was measured in a liquid scintillation counter. IC50 values were calculated from triplicated determinations of each experimental point. Each inhibitor was tested at concentrations ranging from […] in the presence of fixed concentrations of peptide (2 mM) and ATP (50 μM.
(§1) The inhibitory activity data for a representative group of compounds according to the present invention, obtained both in the in-vitro p45 v-abl kinase assay and in the […] human chronic myeloid leukemia K562 cell growth inhibition assay described above, are set out in the following Table I.

K562 cells = experiment: K562 Cell Growth Inhibition Assay; type: cell-based; conditions: human chronic myeloid leukemia K562 cells, 72 h, 10000/well
Method: K562 Cell Growth Inhibition Assay
K562 cells, a human myelogenous leukemia cell line, were seeded into a 24 wells tissue culture plate (Falcon 3047) (10000/well) in the presence of increasing concentrations of the compounds. After 72 h, cells were harvested and were counted using a cell counter (Coulter Counter-ZM). The percent of inhibition was evaluated in respect to the untreated control cells.
as §1

SMILES | IC50 [1] [nM] | IC50 (K562 cells) [nM]
O=C1Nc2ncccc2C1=Cc1cc(O)c2c(c1O)CCCC2 [3-[(1,4-dihydroxy-5,6,7,8-tetrahydronaphth-2-yl)methylene]-7-azaoxindole] | 2140 | 2360
Cc1[nH]c2ccccc2c1C=C1C(=O)Nc2ncccc21 [3-[(2-methyl-3-indolyl)methylene]-7-azaoxindole] | 40 | 2610
COc1ccc2[nH]cc(C=C3C(=O)Nc4ncccc43)c2c1 [3-[(5-methoxy-3-indolyl)methylene]-7-azaoxindole] | 30 | 3210
O=C1Nc2ncccc2C1=Cc1c[nH]c2ncccc12 [3-[(7-azaindol-3-yl)methylene]-7-azaoxindole] |  | 3890
